# In patent US20100298141A1, “SUBSTITUTED PYRIDINE N-OXIDE HERBICIDES” (E. I. DU PONT DE NEMOURS AND COMPANY, priority 2007, published 2010):
# Legend:
# wheat [1] = assay: Test C pre-/postemergence test; type: in vivo, Triticum aestivum; details: for Wheat plant response rating: preemergence, scale 0 (no effect) to 100 (complete control); for Plant response rating, Wheat: scale 0 to 100, 0 no effect, 100 complete control
# Method in brief: (§1)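 Test chemicals were formulated with surfactant in a non-phytotoxic solvent and sprayed both on freshly planted seeds (preemergence) and on 1- to 4-leaf plants of 2–18 cm (postemergence). Flooded-paddy pots received compound directly into 3 cm of standing water, maintained for the test.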
# downy brome = assay: Test C pre-/postemergence test; type: in vivo, Bromus tectorum; details: for Plant response rating, Bromegrass, Downy: scale 0 to 100, 0 no effect, 100 complete control
# Method in brief: as §1
# woolly cupgrass = assay: Test C pre-/postemergence test; type: in vivo, Eriochloa villosa; details: for Plant response rating, Cupgrass, Woolly: scale 0 to 100, 0 no effect, 100 complete control
# Method in brief: as §1
# redroot pigweed = assay: Test A pre-/postemergence greenhouse test; type: in vivo, Amaranthus retroflexus; details: for Pigweed plant response rating: 0 to 100 scale
# Method in brief: (§2)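 Two application timings were run side by side in the greenhouse. Before emergence, compound went onto the soil surface of loam–sand pots as a directed spray; after emergence, plants at 2–10 cm and the one- to two-leaf stage were treated. Visual injury versus controls was rated at approximately day ten.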
# cocklebur = assay: Test C pre-/postemergence test; type: in vivo, Xanthium strumarium; details: for Plant response rating, Cocklebur: scale 0 to 100, 0 no effect, 100 complete control
# Method in brief: as §1
# catchweed bedstraw = assay: Test C pre-/postemergence test; type: in vivo, Galium aparine
# Method in brief: as §1
# lambsquarters = assay: Test C pre-/postemergence test; type: in vivo, Chenopodium album; details: for Plant response rating, Lambsquarters: scale 0 to 100, 0 no effect, 100 complete control
# Method in brief: as §1
# velvetleaf = assay: Test C pre-/postemergence test; type: in vivo, Abutilon theophrasti; details: Postemergence; for Plant response rating, Velvetleaf: scale 0 to 100, 0 no effect, 100 complete control
# Method in brief: as §1
# blackgrass = assay: Test C pre-/postemergence test; type: in vivo, Alopecurus myosuroides; details: for Plant response rating, Blackgrass: scale 0 to 100, 0 no effect, 100 complete control
# Method in brief: as §1
# wheat [2] = assay: Test A pre-/postemergence greenhouse test; type: in vivo, Triticum aestivum; details: for Wheat plant response rating: 0 to 100 scale
# Method in brief: as §2
# eastern black nightshade = assay: Test C pre-/postemergence test; type: in vivo, Solanum ptycanthum
# Method in brief: as §1
# Surinam grass = assay: Test C pre-/postemergence test; type: in vivo, Brachiaria decumbens; details: for Surinam Grass plant response rating: preemergence, scale 0 (no effect) to 100 (complete control); for Plant response rating, Surinam Grass: scale 0 to 100, 0 no effect, 100 complete control
# Method in brief: as §1
# kochia = assay: Test C pre-/postemergence test; type: in vivo, Kochia scoparia; details: for Plant response rating, Kochia: scale 0 to 100, 0 no effect, 100 complete control
# Method in brief: as §1
# [3] = test system: common (oilseed) sunflower; assay: Test C pre-/postemergence test; type: in vivo, Helianthus annuus; details: for Sunflower plant response rating: preemergence, scale 0 (no effect) to 100 (complete control)
# Method in brief: as §1
# giant foxtail [4] = assay: Test C pre-/postemergence test; type: in vivo, Setaria faberii; details: for Plant response rating, Foxtail, Giant: scale 0 to 100, 0 no effect, 100 complete control
# Method in brief: as §1
# wild oat = assay: Test C pre-/postemergence test; type: in vivo, Avena fatua; details: for Plant response rating, Oat, Wild: scale 0 to 100, 0 no effect, 100 complete control
# Method in brief: as §1
# morningglory = assay: Test A pre-/postemergence greenhouse test; type: in vivo, Ipomoea spp.; details: for Morningglory plant response rating: 0 to 100 scale
# Method in brief: as §2
# common ragweed = assay: Test C pre-/postemergence test; type: in vivo, Ambrosia elation; details: for Plant response rating, Ragweed: scale 0 to 100, 0 no effect, 100 complete control
# Method in brief: as §1
# giant foxtail [5] = assay: Test A pre-/postemergence greenhouse test; type: in vivo, Setaria faberi; details: for Foxtail, Giant plant response rating: 0 to 100 scale
# Method in brief: as §2
# [6] = 31 g ai/ha, Preemergence, scale 0 to 100
# [7] = 62 g ai/ha, preemergence, scale 0 (no effect) to 100 (complete control)
# [8] = preemergence, 125 g ai/ha, scale 0 (no effect) to 100 (complete control)
# [9] = Postemergence, 125 g ai/ha, 0 is no effect, 100 is complete control
# [10] = Postemergence, 500 g ai/ha, 0 is no effect, 100 is complete control
# [11] = Preemergence, 125 g ai/ha, 0 no effect, 100 complete control
# [12] = Preemergence, 500 g ai/ha, 0 to 100 scale where 0 is no effect and 100 is complete control
structure (smiles),measurement,setting,value
CC(c1c(C(F)(F)F)nn(C)c1OC(F)F)S(=O)(=O)c1cccc[n+]1[O-] (centres unmarked) [Compound 5],Wheat plant response rating,wheat [1]; 62 g ai/ha,20
same,"Plant response rating (0 to 100), Wheat","wheat [1]; Postemergence, 31 g ai/ha",0
same,"Plant response rating (0 to 100), Wheat","wheat [1]; Postemergence, 62 g ai/ha",0
same,"Plant response rating, Wheat","wheat [1]; Postemergence, 125 g ai/ha",30
same,"Plant response rating, Wheat","wheat [1]; Postemergence, 250 g ai/ha",30
same,"Plant response rating (0 to 100), Wheat","wheat [1]; Preemergence, 250 g ai/ha",98
same,Wheat plant response rating,wheat [1]; 125 g ai/ha,70
same,"Bromegrass, Downy plant response rating",downy brome; [6],0
same,"Bromegrass, Downy plant response rating",downy brome; [7],20
same,"Plant response rating (0 to 100), Bromegrass, Downy","downy brome; Postemergence, 31 g ai/ha",0
same,"Plant response rating, Bromegrass, Downy","downy brome; Postemergence, 62 g ai/ha",0
same,"Plant response rating, Bromegrass, Downy","downy brome; Postemergence, 125 g ai/ha",0
same,"Plant response rating, Bromegrass, Downy","downy brome; Postemergence, 250 g ai/ha",0
same,"Plant response rating (0 to 100), Bromegrass, Downy","downy brome; Preemergence, 250 g ai/ha",60
same,"Bromegrass, Downy plant response rating",downy brome; [8],25
same,"Cupgrass, Woolly plant response rating",woolly cupgrass; [6],85
same,"Cupgrass, Woolly plant response rating",woolly cupgrass; [7],90
same,"Plant response rating (0 to 100), Cupgrass, Woolly","woolly cupgrass; Postemergence, 31 g ai/ha",0
same,"Plant response rating, Cupgrass, Woolly","woolly cupgrass; Postemergence, 62 g ai/ha",40
same,"Plant response rating, Cupgrass, Woolly","woolly cupgrass; Postemergence, 125 g ai/ha",40
same,"Plant response rating, Cupgrass, Woolly","woolly cupgrass; Postemergence, 250 g ai/ha",50
same,"Plant response rating (0 to 100), Cupgrass, Woolly","woolly cupgrass; Preemergence, 250 g ai/ha",100
same,"Cupgrass, Woolly plant response rating",woolly cupgrass; [8],100
same,Pigweed plant response rating,redroot pigweed; [9],60
same,Pigweed plant response rating,redroot pigweed; [10],80
same,Pigweed plant response rating,redroot pigweed; [11],100
same,"Plant response rating, Pigweed",redroot pigweed; [12],100
same,Cocklebur plant response rating,cocklebur; [6],0
same,Cocklebur plant response rating,cocklebur; [7],0
same,"Plant response rating (0 to 100), Cocklebur","cocklebur; Postemergence, 31 g ai/ha",0
same,"Plant response rating, Cocklebur","cocklebur; Postemergence, 62 g ai/ha",0
same,"Plant response rating, Cocklebur","cocklebur; Postemergence, 125 g ai/ha",0
same,"Plant response rating, Cocklebur","cocklebur; Postemergence, 250 g ai/ha",10
same,"Plant response rating (0 to 100), Cocklebur","cocklebur; Preemergence, 250 g ai/ha",0
same,Cocklebur plant response rating,cocklebur; [8],0
same,Galium plant response rating,catchweed bedstraw; [6],85
same,Galium plant response rating,catchweed bedstraw; [7],90
same,"Plant response rating (0 to 100), Galium","catchweed bedstraw; Preemergence, 250 g ai/ha",100
same,Galium plant response rating,catchweed bedstraw; [8],100
same,Lambsquarters plant response rating,lambsquarters; [6],100
same,Lambsquarters plant response rating,lambsquarters; [7],100
same,"Plant response rating (0 to 100), Lambsquarters","lambsquarters; Postemergence, 31 g ai/ha",0
same,"Plant response rating, Lambsquarters","lambsquarters; Postemergence, 62 g ai/ha",0
same,"Plant response rating, Lambsquarters","lambsquarters; Postemergence, 125 g ai/ha",0
same,"Plant response rating, Lambsquarters","lambsquarters; Postemergence, 250 g ai/ha",0
same,"Plant response rating (0 to 100), Lambsquarters","lambsquarters; Preemergence, 250 g ai/ha",100
same,Lambsquarters plant response rating,lambsquarters; [8],100
same,"Plant response rating (0 to 100), Velvetleaf",velvetleaf; 31 g ai/ha,0
same,"Plant response rating (0 to 100), Velvetleaf",velvetleaf; 62 g ai/ha,0
same,"Plant response rating, Velvetleaf",velvetleaf; 125 g ai/ha,5
same,"Plant response rating, Velvetleaf",velvetleaf; 250 g ai/ha,50
same,Blackgrass plant response rating,blackgrass; [6],80
same,Blackgrass plant response rating,blackgrass; [7],100
same,"Plant response rating (0 to 100), Blackgrass","blackgrass; Postemergence, 31 g ai/ha",0
same,"Plant response rating, Blackgrass","blackgrass; Postemergence, 62 g ai/ha",0
same,"Plant response rating, Blackgrass","blackgrass; Postemergence, 250 g ai/ha",40
same,"Plant response rating (0 to 100), Blackgrass","blackgrass; Preemergence, 250 g ai/ha",100
same,Blackgrass plant response rating,blackgrass; [8],100
same,Wheat plant response rating,wheat [2]; [9],60
same,Wheat plant response rating,wheat [2]; [10],70
same,Wheat plant response rating,wheat [2]; [11],70
same,"Plant response rating, Wheat",wheat [2]; [12],90
same,Nightshade plant response rating,eastern black nightshade; [6],100
same,Nightshade plant response rating,eastern black nightshade; [7],100
same,"Plant response rating (0 to 100), Nightshade","eastern black nightshade; Preemergence, 250 g ai/ha",100
same,Nightshade plant response rating,eastern black nightshade; [8],100
same,Surinam Grass plant response rating,Surinam grass; 62 g ai/ha,70
same,"Plant response rating (0 to 100), Surinam Grass","Surinam grass; Postemergence, 31 g ai/ha",30
same,"Plant response rating (0 to 100), Surinam Grass","Surinam grass; Postemergence, 62 g ai/ha",55
same,"Plant response rating, Surinam Grass","Surinam grass; Postemergence, 125 g ai/ha",60
same,"Plant response rating, Surinam Grass","Surinam grass; Postemergence, 250 g ai/ha",100
same,"Plant response rating (0 to 100), Surinam Grass","Surinam grass; Preemergence, 250 g ai/ha",95
same,Surinam Grass plant response rating,Surinam grass; 125 g ai/ha,70
same,Kochia plant response rating,kochia; [6],80
same,Kochia plant response rating,kochia; [7],100
same,"Plant response rating (0 to 100), Kochia","kochia; Postemergence, 31 g ai/ha",0
same,"Plant response rating, Kochia","kochia; Postemergence, 62 g ai/ha",0
same,"Plant response rating, Kochia","kochia; Postemergence, 125 g ai/ha",0
same,"Plant response rating, Kochia","kochia; Postemergence, 250 g ai/ha",0
same,"Plant response rating (0 to 100), Kochia","kochia; Preemergence, 250 g ai/ha",100
same,Kochia plant response rating,kochia; [8],100
same,Sunflower plant response rating,[3]; 62 g ai/ha,55
same,"Plant response rating (0 to 100), Sunflower","[3]; Preemergence, 250 g ai/ha",85
same,Sunflower plant response rating,[3]; 125 g ai/ha,70
same,"Foxtail, Giant plant response rating",giant foxtail [4]; [6],95
same,"Foxtail, Giant plant response rating",giant foxtail [4]; [7],95
same,"Plant response rating (0 to 100), Foxtail, Giant","giant foxtail [4]; Postemergence, 31 g ai/ha",0
same,"Plant response rating, Foxtail, Giant","giant foxtail [4]; Postemergence, 62 g ai/ha",5
same,"Plant response rating, Foxtail, Giant","giant foxtail [4]; Postemergence, 125 g ai/ha",40
same,"Plant response rating, Foxtail, Giant","giant foxtail [4]; Postemergence, 250 g ai/ha",70
same,"Plant response rating (0 to 100), Foxtail, Giant","giant foxtail [4]; Preemergence, 250 g ai/ha",100
same,"Foxtail, Giant plant response rating",giant foxtail [4]; [8],98
same,"Oat, Wild plant response rating",wild oat; [6],20
same,"Oat, Wild plant response rating",wild oat; [7],60
same,"Plant response rating (0 to 100), Oat, Wild","wild oat; Postemergence, 31 g ai/ha",0
same,"Plant response rating, Oat, Wild","wild oat; Postemergence, 62 g ai/ha",0
same,"Plant response rating, Oat, Wild","wild oat; Postemergence, 125 g ai/ha",0
same,"Plant response rating, Oat, Wild","wild oat; Postemergence, 250 g ai/ha",30
same,"Plant response rating (0 to 100), Oat, Wild","wild oat; Preemergence, 250 g ai/ha",75
same,"Oat, Wild plant response rating",wild oat; [8],70
same,Morningglory plant response rating,morningglory; [9],60
same,Morningglory plant response rating,morningglory; [10],90
same,Morningglory plant response rating,morningglory; [11],90
same,"Plant response rating, Morningglory",morningglory; [12],100
same,Ragweed plant response rating,common ragweed; [6],85
same,Ragweed plant response rating,common ragweed; [7],85
same,"Plant response rating (0 to 100), Ragweed","common ragweed; Postemergence, 31 g ai/ha",0
same,"Plant response rating (0 to 100), Ragweed","common ragweed; Postemergence, 62 g ai/ha",5
same,"Plant response rating, Ragweed","common ragweed; Postemergence, 125 g ai/ha",5
same,"Plant response rating, Ragweed","common ragweed; Postemergence, 250 g ai/ha",55
same,"Plant response rating (0 to 100), Ragweed","common ragweed; Preemergence, 250 g ai/ha",100
same,Ragweed plant response rating,common ragweed; [8],100
same,"Foxtail, Giant plant response rating",giant foxtail [5]; [9],90
same,"Foxtail, Giant plant response rating",giant foxtail [5]; [10],90
same,"Foxtail, Giant plant response rating",giant foxtail [5]; [11],90
same,"Plant response rating, Foxtail, Giant",giant foxtail [5]; [12],100
